Assay results from US11884683B2, “Tricyclic heterocycle compounds useful as HIV integrase inhibitors” (Merck Sharp & Dohme LLC, priority 2018, dated 2024).

test system: HIV-1 (H9/IIIB strain); experiment: Multiple round HIV-1 infection assay in MT4-GFP cells (wild type cell assay, Viking); format: cell-based; settings: 0% NHS condition; MT4-GFP cells infected with HIV-1 H9/IIIB; inhibition of reproductive ratio R0, ~48 h and ~72 h post-infection; read-out: WILD TYPE CELL ASSAY Viking IP (0% NHS)
Procedure: Assessing Antiviral Potency in a Multiple Round HIV-1 Infection Assay
The antiviral activity of the Examples herein was assessed in an assay that measures the rate of replication of HIV in cell culture, and performed according to the following procedure. HIV-1 replication was monitored using MT4-gag-GFP clone D3 (hereafter designated MT4-GFP), which are MT-4 cells modified to harbor a GFP reporter gene, the expression of which is dependent on the HIV-1 expressed proteins tat and rev. Productive infection of an MT4-GFP cell with HIV-1 results in GFP expression approximately 24 h post-infection. MT4-GFP cells were maintained at 37° C./5% CO2/90% relative humidity in RPMI 1640 supplemented with 10% fetal bovine serum, 100 U/ml penicillin/streptomycin, and 400 μg/ml G418 to maintain the reporter gene. For infections, MT4-GFP cells were placed in the same medium lacking G418 and infected overnight with HIV-1 (H9/IIIB strain) virus at an approximate multiplicity of infection of 0.01 in the same incubation conditions. Cells were then washed and re-suspended in either RPMI 1640 at 2×10^5 cells/mL (0% NHS condition) or 100% normal human serum (NHS) at 2×10^5 cells/mL (100% NHS condition). Compound plates were prepared by dispensing compounds dissolved in DMSO into wells of 384 well poly-D-lysine-coated plates (0.2 μl/well) using an ECHO acoustic dispenser. Each compound was tested in a 10-point serial 3-fold dilution (typical final concentrations: 1050 nM-0.05 nM for 0% NHS condition or […]-2.13 nM for 100% NHS condition). Controls included no inhibitor (DMSO only) and a combination of three antiviral agents (efavirenz, indinavir, an in-house integrase strand transfer inhibitor at final concentrations of […] each). Cells were added ([…]) to compound plates and the infected cells were maintained at 37° C./5% CO2/90% relative humidity.
Infected cells were quantified at two time points, ˜48 h and ˜72 h post-infection, by counting the number of green cells in each well using an Acumen eX3 scanner. The increase in the number of green cells over ˜24 h period gives the reproductive ratio, RO, which is typically 5-15 and has been shown experimentally to be in logarithmic phase (data not shown). Inhibition of R0 is calculated for each well, and IC50s determined by non-linear 4-parameter curve fitting.

| SMILES | IC50 [nM] |
| --- | --- |
| CCN1CN2CC(O)c3c(C(=O)NCc4ccc(F)c(Cl)c4F)c(=O)c(O)c(n32)C1=O (stereo not shown) [Compound 50] | 4.2 |
| CCN1CN2CC(O)c3c(C(=O)NCc4cccc(Cl)c4F)c(=O)c(O)c(n32)C1=O (stereo not shown) [Compound 52] | 8.1 |
| CCN1CN2CC(O)c3c(C(=O)NCc4c(F)ccc(Cl)c4F)c(=O)c(O)c(n32)C1=O (stereo not shown) [Compound 54] | 4.7 |
| CCN1CN2CC(O)c3c(C(=O)NCc4ccc(F)cc4F)c(=O)c(O)c(n32)C1=O (stereo not shown) [Compound 58] | 4 |
| CCN1CN2CC(O)c3c(C(=O)NCc4ccc(F)cc4)c(=O)c(O)c(n32)C1=O (stereo not shown) [Compound 62] | 5.2 |
| CCN1CN2CC(O)c3c(C(=O)NCc4ccccc4F)c(=O)c(O)c(n32)C1=O (stereo not shown) [Compound 64] | 5.9 |
| CCN1C(=O)c2c(O)c(=O)c(C(=O)NCc3ccc(C(F)F)cc3)c3n2N(CC3O)C1C (stereo not shown) [Compound 75] | 35 |
| CCN1C(=O)c2c(O)c(=O)c(C(=O)NCc3ccc(C(F)F)cc3)c3n2N(CC3O)C1C (stereo not shown) [Compound 76] | 88 |
| CCN1C(=O)c2c(O)c(=O)c(C(=O)NCc3ccc(C(F)(F)F)cc3)c3n2N(CC3O)C1C (stereo not shown) [Compound 79] | 103 |
| CCN1C(=O)c2c(O)c(=O)c(C(=O)NCc3ccc(C(F)(F)F)cc3)c3n2N(CC3O)C1C (stereo not shown) [Compound 80] | 219 |

Second part, the molecule after the results:

| IC50 [nM] | SMILES |
| --- | --- |
| 2.3 | CCN1CN2CC(O)c3c(C(=O)NCc4c(F)ccc(F)c4F)c(=O)c(O)c(n32)C1=O (stereo not shown) [Compound 48] |
| 2 | CCN1CN2CC(O)c3c(C(=O)NCc4ccc(F)c(Cl)c4F)c(=O)c(O)c(n32)C1=O (stereo not shown) [Compound 49] |
| 2.1 | CCN1CN2CC(O)c3c(C(=O)NCc4cccc(Cl)c4F)c(=O)c(O)c(n32)C1=O (stereo not shown) [Compound 51] |
| 1.1 | CCN1CN2CC(O)c3c(C(=O)NCc4c(F)ccc(Cl)c4F)c(=O)c(O)c(n32)C1=O (stereo not shown) [Compound 53] |
| 2.9 | CCN1CN2CC(O)c3c(C(=O)NCc4c(F)cc(F)cc4F)c(=O)c(O)c(n32)C1=O (stereo not shown) [Compound 56] |
| 2.8 | CCN1CN2CC(O)c3c(C(=O)NCc4ccc(F)c(F)c4F)c(=O)c(O)c(n32)C1=O (stereo not shown) [Compound 60] |
| 1.9 | CCN1CN2CC(O)c3c(C(=O)NCc4ccc(F)cc4)c(=O)c(O)c(n32)C1=O (stereo not shown) [Compound 61] |
| 1.6 | CCN1CN2CC(O)c3c(C(=O)NCc4ccccc4F)c(=O)c(O)c(n32)C1=O (stereo not shown) [Compound 63] |
| 2.3 | CCN1C(=O)c2c(O)c(=O)c(C(=O)NCc3c(F)ccc(Cl)c3F)c3n2N(CC3O)C1C (stereo not shown) [Compound 72] |
| 2.1 | CCN1C(=O)c2c(O)c(=O)c(C(=O)NCc3c(F)ccc(F)c3F)c3n2N(CC3O)C1C (stereo not shown) [Compound 84] |
| 2.9 | CCN1C(=O)c2c(O)c(=O)c(C(=O)NCc3ccc(F)cc3)c3n2N(CC3O)C1C (stereo not shown) [Compound 88] |
| 1.7 | CCN1C(=O)c2c(O)c(=O)c(C(=O)NCc3ccc(F)cc3F)c3n2N(CC3O)C1C (stereo not shown) [Compound 92] |
| 1.9 | CN1C(=O)c2c(O)c(=O)c(C(=O)NCc3ccc(F)cc3F)c3n2N(CC3O)C12CCOC2 (stereo not shown) [Compound 114] |
| 1.6 | CN1C(=O)c2c(O)c(=O)c(C(=O)NCc3c(F)ccc(Cl)c3F)c3n2N(CC3O)C12CCOC2 (stereo not shown) [Compound 118] |

same assay, conditions: Human immunodeficiency virus 1, IIIB, 0% NHS condition; MT4-GFP cells infected with HIV-1 H9/IIIB; inhibition of reproductive ratio R0, ~48 h and ~72 h post-infection; read-out: WILD TYPE CELL ASSAY Viking IP (0% NHS)

| IC50 [nM] | SMILES |
| --- | --- |
| 2.8 | CCN1CN2CC(O)c3c(C(=O)NCc4c(F)ccc(F)c4F)c(=O)c(O)c(n32)C1=O (stereo not shown) [Compound 47] |
| 1.6 | CCN1CN2CC(O)c3c(C(=O)NCc4c(F)cc(F)cc4F)c(=O)c(O)c(n32)C1=O (stereo not shown) [Compound 55] |
| 2.4 | CCN1CN2CC(O)c3c(C(=O)NCc4ccc(F)cc4F)c(=O)c(O)c(n32)C1=O (stereo not shown) [Compound 57] |
| 2.5 | CCN1CN2CC(O)c3c(C(=O)NCc4ccc(F)c(F)c4F)c(=O)c(O)c(n32)C1=O (stereo not shown) [Compound 59] |
| 3.7 | CCN1C(=O)c2c(O)c(=O)c(C(=O)NCc3c(F)ccc(Cl)c3F)c3n2N(CC3O)C1C (stereo not shown) [Compound 71] |
| 2.5 | CCN1C(=O)c2c(O)c(=O)c(C(=O)NCc3c(F)ccc(F)c3F)c3n2N(CC3O)C1C (stereo not shown) [Compound 83] |
| 4.2 | CCN1C(=O)c2c(O)c(=O)c(C(=O)NCc3ccc(F)cc3)c3n2N(CC3O)C1C (stereo not shown) [Compound 87] |
| 3.3 | CCN1C(=O)c2c(O)c(=O)c(C(=O)NCc3ccc(F)cc3F)c3n2N(CC3O)C1C (stereo not shown) [Compound 91] |
| 1.5 | CN1C(=O)c2c(O)c(=O)c(C(=O)NCc3ccc(F)cc3F)c3n2N(CC3O)C12CCOC2 (stereo not shown) [Compound 113] |
| 1.8 | CN1C(=O)c2c(O)c(=O)c(C(=O)NCc3c(F)ccc(Cl)c3F)c3n2N(CC3O)C12CCOC2 (stereo not shown) [Compound 117] |
